Reference: article PMC9884962, “Pigments of aminophenoxazinones and viridomycins produced by termite-associated Streptomyces tanashiensis BYF-112” (Frontiers in Microbiology, 2023)
Converted amounts (≈) assume the structure as drawn. “And” between values parts separate entries of the source, which are not always exact repeats. Equal values may be shown once. Read-outs that look alike come from different tables or passages of the source.

Tests used:
Assay type in all cases: cell-based
[1] = test system: human gastric cancer cell line (MGC-803); assay: MTT cytotoxicity assay, MGC-803; conditions: 48 h exposure, read-out: Cytotoxic activity IC50, MGC-803
Experimental: (§1) The metabolites 1–4 were evaluated for their cytotoxic activities against human malignant melanoma cell line (A375), human ovarian cancer cell line (SKOV-3), human breast cancer cell line (MDA-MB231), human gastric cancer cell line (MGC-803) and human normal cell line (L-02) with the MTT method ([Wang et al., 2022]). The cell lines were maintained in Dulbecco’s modified eagle medium (DMEM) supplemented with 10% fetal bovine serum (FBS) along with 1% penicillin and streptomycin. Cells were grown at 37°C in an atmosphere with 5% CO2 and then seeded in 96-well plates and permitted to grow for 20 h. Then tested compounds at preset concentrations were added. The 3-(4,5-dimethylthiazol-2-yl)-2,5-diphenyltetrazolium bromide (MTT; 20 μl, 5 mg/ml) was added into each well after a 48 h exposure period. After an additional 4 h further incubation, the medium was replaced by DMSO (150 μl), then shaking the plates for 15 min. The absorbance at 490 nm were recorded. The percentage of cell viability was calculated using the following formula: Cell viability (%) = the OD of tested group/the OD of CK × 100%. Finally, IC50 values were determined by EXCEL. The azithromycin was used as positive control.

[2] = test system: human ovarian cancer cell line (SKOV-3); assay: MTT cytotoxicity assay, SKOV-3; conditions: SK-OV-3, 48 h exposure, read-out: Cytotoxic activity IC50, SKOV-3
Experimental: as §1

[3] = test system: human malignant melanoma cell line (A375); assay: MTT cytotoxicity assay, A375; conditions: A-375, 48 h exposure, read-out: Cytotoxic activity IC50, A375
Experimental: as §1

[4] = MTT cytotoxicity assay, L-02; conditions: human, L-02 normal liver cells, 48 h exposure, normal cell line, read-out: Cytotoxic activity IC50, L-02
Experimental: as §1

[5] = test system: human breast cancer cell line (MDA-MB231); assay: MTT cytotoxicity assay, MDA-231; conditions: MDA-MB-231, 48 h exposure, read-out: Cytotoxic activity IC50, MDA-231
Experimental: as §1

[6] = test system: Staphylococcus aureus (ATCC6538); assay: Minimum inhibitory concentration assay, S. aureus; conditions: for MIC: Staphylococcus aureus, ATCC6538
Experimental: (§2) The Staphylococcus aureus (ATCC6538), methicillin-resistant S. aureus (MRSA, SA2), Escherichia coli (ATCC8739) and Micrococcus tetragenus (ATCC35098) donated by Professor Ting Xue from Anhui Agricultural university were used as a target pathogen for the examination of antibacterial activity of the metabolites. The disc diffusion ([Özogul et al., 2022]) and minimum inhibitory concentrations (MICs; [Cui et al., 2022]) methods were performed to evaluate the antibacterial activities of the new natural metabolites 1, 2, and 4. Filter paper disks (6 mm) with metabolite dissolved in DMSO in a concentration (30 μg/filter paper) were added to the culture medium, and the plates were incubated at 37°C for 12 h. Filter papers with DMSO and levofloxacin were set as negative and positive controls, respectively. All experiments were performed in triplicate, and data were shown as mean values standard deviation. And the MICs of the compounds were determined by the method as we previously described ([Cui et al., 2022]).

[7] = test system: Escherichia coli (ATCC8739); assay: Filter paper disc diffusion, E. coli; conditions: 30 μg/filter paper (6 mm disc), 37°C, 12 h; dash = No inhibited
Experimental: as §2

[8] = test system: Micrococcus tetragenus (ATCC35098); assay: Filter paper disc diffusion, M. tetragenus; conditions: 30 μg/filter paper (6 mm disc), 37°C, 12 h, dash = No inhibited
Experimental: as §2

[9] = test system: methicillin-resistant S. aureus (MRSA, SA2); assay: Filter paper disc diffusion, MRSA; conditions: 30 μg/filter paper (6 mm disc), 37°C, 12 h, dash = No inhibited
Experimental: as §2

[10] = test system: Staphylococcus aureus (ATCC6538); assay: Filter paper disc diffusion, S. aureus; conditions: 30 μg/filter paper (6 mm disc), 37°C, 12 h, dash = No inhibited
Experimental: as §2

[11] = test system: Micrococcus tetragenus (ATCC35098); assay: Minimum inhibitory concentration assay, M. tetragenus; conditions: for MIC: Micrococcus, ATCC35098
Experimental: as §2

[12] = test system: human cancer cell lines (A375, SKOV-3, MDA-231 and MGC-803); assay: MTT cytotoxicity assay, tested human cancer cell lines together; conditions: range over A375, SKOV-3, MDA-231 and MGC-803, read-out: IC50 values against the tested human cancer cell lines
Experimental: as §1

[13] = test system: methicillin-resistant S. aureus (MRSA, SA2); assay: Minimum inhibitory concentration assay, MRSA
Experimental: as §2

[14] = test system: Escherichia coli (ATCC8739); assay: Minimum inhibitory concentration assay, E. coli
Experimental: as §2

[15] = Staphylococcus aureus, MRSA; read-out: Minimum inhibitory concentration (MIC), MRSA

| Compound | IC50 [1] [µM] | IC50 [2] [µM] | IC50 [3] [µM] | IC50 at 48 h [4] [µM] | IC50 [5] [µM] | MIC [6] [mg/L] | Zone of inhibition (ZOI), Escherichia coli [7] | Zone of inhibition (ZOI), Micrococcus tetragenus [8] | Zone of inhibition (ZOI), MRSA [9] | Zone of inhibition (ZOI), Staphylococcus aureus [10] | MIC [11] [mg/L] | MIC [13, 15] [mg/L] | MIC [14] [mg/L] | other results |
| --- | --- | --- | --- | --- | --- | --- | --- | --- | --- | --- | --- | --- | --- | --- |
| CC[C@H]1OC(=O)[C@H](C)[C@@H](O[C@H]2C[C@@](C)(OC)[C@@H](O)[C@H](C)O2)[C@H](C)[C@@H](O[C@@H]2O[C@H](C)C[C@H](N(C)C)[C@H]2O)[C@](C)(O)C[C@@H](C)CN(C)[C@H](C)[C@@H](O)[C@]1(C)O [Azithromycin, azithromycin, reference compound] | 1.57 ± 0.03 | 0.41 ± 0.12 | 0.79 ± 0.13 | 7.34 ± 1.15 | 4.03 ± 0.43 | – | – | – | – | – | – | – | – | – |
| Nc1cc2nc3cc(CO)ccc3oc-2cc1=O [Compound 1, 2-amino-8-hydroxymethyl-3H-phenoxazin-3-one] | 50.2 ± 7.01 | 22.3 ± 3.78 | 67.7 ± 4.31 | 72 ± 7.22 | 55.9 ± 7.47 | 12.5 (≈ 51.6 µM) | –^b | 15.3 mm and 15. mm and 15.3 ± 0.2 mm | 15.3 mm and 15.3 ± 0.1 mm | 17.2 mm and 17.2 ± 0.2 mm | 12.5 (≈ 51.6 µM) | 25 (≈ 103 µM) | > 100 | Minimum inhibitory concentration (MIC), Staphylococcus aureus [6]: 12.5 mg/L (≈ 51.6 µM); IC50 [12]: 22.3 to 67.7 µM |
| CC(=O)OCc1ccc2oc3cc(=O)c(N)cc-3nc2c1 [Compound 2, exfoliazone B] | 69.9 ± 1.94 | 75.8 ± 5.77 | > 100 | > 100 | > 100 | > 100 | –^b | –^b | –^b | –^b | 50 (≈ 176 µM) | > 100 | > 100 | – |
| CC(=O)Nc1cc(CNc2cc3nc4cc(CO)ccc4oc-3cc2=O)ccc1O [Compound 3, exfoliazone C] | > 100 | > 100 | > 100 | > 100 | > 100 | – | – | – | – | – | – | – | – | – |
| CC(=O)OCc1ccc2oc3cc(=O)c(NC4OC(CO)C(O)C(O)C4O)cc-3nc2c1 (centres unmarked) [Compound 4, exfoliazoneglycoside] | > 100 | > 100 | > 100 | > 100 | > 100 | > 100 | –^b | –^b | –^b | –^b | > 100 | > 100 | > 100 | – |
| C[C@H]1COc2c(N3CCN(C)CC3)c(F)cc3c(=O)c(C(=O)O)cn1c23 [Levofloxacin, levofloxacin, reference compound] | – | – | – | – | – | 3.13 (≈ 8.66 µM) | 33.0 ± 1.0 mm | 24.8 ± 0.6 mm | 15.2 ± 0.1 mm | 28.9 ± 0.8 mm | 3.13 (≈ 8.66 µM) | – | 3.13 (≈ 8.66 µM) | Zone of inhibition (ZOI), Micrococcus tetragenus ([8]; listed as levofloxacin): 24.8 mm; Zone of inhibition (ZOI), MRSA ([9]; listed as levofloxacin): 15.2 mm; Zone of inhibition (ZOI), Staphylococcus aureus ([10]; listed as levofloxacin): 28.9 mm; MIC ([13]; Staphylococcus aureus, MRSA, read-out: Minimum inhibitory concentration (MIC), MRSA): 6.25 mg/L (≈ 17.3 µM) |
| gentamycin sulfate [reference compound] | – | – | – | – | – | – | – | – | – | – | – | – | – | Minimum inhibitory concentration (MIC), Staphylococcus aureus [6]: 3.13 mg/L; Minimum inhibitory concentration (MIC), Micrococcus tetragenus [11]: 3.13 mg/L; Minimum inhibitory concentration (MIC), MRSA [13]: 6.25 mg/L |
